Patent US8455688B2, “HDAC inhibitors” (Lixte Biotechnology, Inc., priority 2007, dated 2013)
Converted amounts (≈) assume the structure as drawn. “Also recorded” adds a separate entry of the source. Where two headings read alike, the source gives them in different places.

Tests used:
[1] = system: cell line U-87; assay: Activity against the cell line U-87; assay type: cell-based, human; details: potency on an equimolar basis
[2] = system: CP Control; assay: Broth dilution antifungal susceptibility testing, CP Control; assay type: cell-based; details: read-out: minimum inhibitory concentration (MIC)
Description: A total of 23 isolates were tested to include 3 Candida albicans, 3 Candida glabrata, 3 Cryptococcus neoformans, 3 Aspergillus fumigatus, 3 Rhizopus oryzae, 3, Fusarium solani, 3 Pseudallescheria boydii, and 2 […]. All isolates were clinical isolates submitted to the Fungus Testing Laboratory for evaluation. Antifungal susceptibility testing was accomplished according to the methods outlined in the National Committee for Clinical Laboratory Standards, M-27A2, Reference Method for Broth Dilution Antifungal Susceptibility Testing of Yeasts; Approved Standard, and M38-A “Reference Method for Broth Dilution Antifungal Susceptibility Testing of Conidium-Forming Filamentous Fungi; Approved Standard”. This includes testing in RPMI-1640 with glutamine and without bicarbonate, an inoculum size of 0.5-2.5×10^3 for yeasts or […] for moulds, and incubation at 35° C. for 24 and 48 hours. […] Drug concentrations were 0.125-64 μg/ml. A 10 mg portion of each powder was weighed out and added to 1 ml of 100% DMSO for compound 205. The resulting concentration of […] was diluted to a working concentration of 6400 μg/ml for compound 205 in 100% DMSO. All subsequent dilutions were also made using the respective diluents. Final testing concentrations ranged from 0.125-64 μg/ml. The NCCLS recommended medium RPMI-1640 (Hardy Diagnostics, Santa Monica, Calif.) was utilized as the test medium. All isolates in this study were clinical isolates received in the Fungus Testing Laboratory for standard antifungal susceptibility testing and/or identification. Isolates, which were not sent for identification, were confirmed to assure testing integrity. A total of 23 were tested to include 3 Candida albicans, 3 Candida glabrata, 3 Cryptococcus neoformans, 3 Aspergillus fumigatus, 3 Rhizopus oryzae, 3, Fusarium solani, 3 Pseudallescheria boydii, and 2 […]. Minimum inhibitory concentrations (MIC) were determined at the first 24-hour interval where growth could be determined in the drug-free control tube.

[3] = system: T. rubrum; assay: Broth dilution antifungal susceptibility testing, T. rubrum; assay type: cell-based, Trichophyton rubrum; details: Trichophyton rubrum, 80% inhibition, read-out: minimum inhibitory concentration (MIC)
In short: (§1)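 Clinical isolates tested by NCCLS M27-A2 (yeasts) and M38-A (moulds) broth dilution in RPMI-1640 with glutamine, without bicarbonate, at 35° C for 24 and 48 hours. Compound dissolved in DMSO, tested at 0.125-64 μg/ml. MIC read at the first 24-hour interval with growth in the drug-free control.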

[4] = system: R. arrhizus; assay: Broth dilution antifungal susceptibility testing, R. arrhizus; assay type: cell-based, Rhizopus oryzae; details: Rhizopus arrhizus, 80% inhibition, read-out: minimum inhibitory concentration (MIC)
In short: as §1

[5] = system: A. fumigatus; assay: Broth dilution antifungal susceptibility testing, A. fumigatus; assay type: cell-based, Aspergillus fumigatus; details: Aspergillus fumigatus, 80% inhibition, read-out: minimum inhibitory concentration (MIC)
In short: as §1

[6] = system: C. neoformans; assay: Broth dilution antifungal susceptibility testing, C. neoformans; assay type: cell-based; details: Cryptococcus neoformans, 50% reduction in turbidity, read-out: minimum inhibitory concentration (MIC)
In short: as §1

[7] = system: C. albicans; assay: Broth dilution antifungal susceptibility testing, C. albicans; assay type: cell-based, Candida albicans; details: Candida albicans, 50% reduction in turbidity, read-out: minimum inhibitory concentration (MIC)
In short: as §1

[8] = system: C. glabrata; assay: Broth dilution antifungal susceptibility testing, C. glabrata; assay type: cell-based, Candida glabrata; details: Nakaseomyces glabratus, 50% reduction in turbidity, read-out: minimum inhibitory concentration (MIC)
In short: as §1

[9] = system: U87 GBM xenografts; assay: Inhibition of U87 GBM xenografts; details: in vivo
[10] = system: GBM xenograft; assay: GBM xenograft tumor volume in SCID mice; assay type: in vivo
[11] = system: S. apiospermum; assay: Broth dilution antifungal susceptibility testing, S. apiospermum; assay type: cell-based, Pseudallescheria boydii; details: Scedosporium apiospermum, 80% inhibition, read-out: minimum inhibitory concentration (MIC)
In short: as §1

[12] = system: F. solani; assay: Broth dilution antifungal susceptibility testing, F. solani; assay type: cell-based; details: Fusarium solani, 80% inhibition, read-out: minimum inhibitory concentration (MIC)
In short: as §1

O=C(CCCCCNC(=O)c1ccccc1S)Nc1cccnc1 [Compound 205, 2-Mercapto-N-[5-(pyridin-3-ylcarbamoyl)pentyl]benzamide]
activity against the cell line U-87 [1]: most potent on an equimolar basis | MIC ([2]; 24 hours): 32 µg/mL (≈ 93.2 µM) | MIC ([2]; 48 hours): 32 µg/mL (≈ 93.2 µM) | MIC ([3]; 24 h, isolate 07-1743, 24 hours): 16 µg/mL (≈ 46.6 µM) | MIC ([3]; 24 h, isolate 07-2055, 24 hours): 8 µg/mL (≈ 23.3 µM) | MIC ([3]; 48 h, isolate 07-1743, 48 hours): 32 µg/mL (≈ 93.2 µM) | MIC ([3]; 48 h, isolate 07-2055, 48 hours): 16 µg/mL (≈ 46.6 µM) | MIC ([4]; 24 h, isolate 07-1870, 24 hours): > 64 µg/mL | MIC ([4]; 24 h, isolate 07-2044, 24 hours): 64 µg/mL (≈ 186 µM) | MIC ([4]; 24 h, isolate 07-2078, 24 hours): 64 µg/mL (≈ 186 µM) | MIC ([4]; 48 h, isolate 07-1870, 48 hours): > 64 µg/mL | MIC ([4]; 48 h, isolate 07-2044, 48 hours): 64 µg/mL (≈ 186 µM) | MIC ([4]; 48 h, isolate 07-2078, 48 hours): > 64 µg/mL | MIC ([5]; 24 h, isolate 05-388, 24 hours): 16 µg/mL (≈ 46.6 µM) | MIC ([5]; 24 h, isolate 06-4126, 24 hours): 16 µg/mL (≈ 46.6 µM) | MIC ([5]; 24 h, isolate 07-2039, 24 hours): 8 µg/mL (≈ 23.3 µM) | MIC ([5]; 48 h, isolate 05-388, 48 hours): > 64 µg/mL | MIC ([5]; 48 h, isolate 06-4126, 48 hours): > 64 µg/mL | MIC ([5]; 48 h, isolate 07-2039, 48 hours): > 64 µg/mL | MIC ([6]; 24 h, isolate 07-2665, 24 hours): 32 µg/mL (≈ 93.2 µM) | MIC ([6]; 24 h, isolate 07-2737, 24 hours): 32 µg/mL (≈ 93.2 µM) | MIC ([6]; 24 h, isolate 07-2829, 24 hours): 32 µg/mL (≈ 93.2 µM) | MIC ([6]; 48 h, isolate 07-2665, 48 hours): 32 µg/mL (≈ 93.2 µM) | MIC ([6]; 48 h, isolate 07-2737, 48 hours): 32 µg/mL (≈ 93.2 µM) | MIC ([6]; 48 h, isolate 07-2829, 48 hours): 32 µg/mL (≈ 93.2 µM) | MIC ([7]; 24 h, isolate 07-3006, 24 hours): 32 µg/mL (≈ 93.2 µM) | MIC ([7]; 24 h, isolate 07-3011, 24 hours): 32 µg/mL (≈ 93.2 µM) | MIC ([7]; 24 h, isolate 07-3012, 24 hours): 32 µg/mL (≈ 93.2 µM) | MIC ([7]; 48 h, isolate 07-3006, 48 hours): 64 µg/mL (≈ 186 µM) | MIC ([7]; 48 h, isolate 07-3011, 48 hours): > 64 µg/mL | MIC ([7]; 48 h, isolate 07-3012, 48 hours): 64 µg/mL (≈ 186 µM) | MIC ([8]; 24 h, isolate 07-2964, 24 hours): 32 µg/mL (≈ 93.2 µM) | MIC ([8]; 24 h, isolate 07-2965, 24 hours): 32 µg/mL (≈ 93.2 µM) | MIC ([8]; 24 h, isolate 07-3013, 24 hours): 32 µg/mL (≈ 93.2 µM) | MIC ([8]; 48 h, isolate 07-2964, 48 hours): 64 µg/mL (≈ 186 µM) | MIC ([8]; 48 h, isolate 07-2965, 48 hours): 64 µg/mL (≈ 186 µM) | MIC ([8]; 48 h, isolate 07-3013, 48 hours): 64 µg/mL (≈ 186 µM) | inhibition of U87 GBM xenografts compared to control [9]: significant inhibition | activity relative to an equimolar dose of SAHA ([10]; GBM xenograft, subcutaneous): more active than, an equimolar dose of SAHA | inhibition of GBM xenograft tumor volume ([10]; tumor cells implanted subcutaneously, 0, 7, 14, 21 and 28 days): inhibited the growth of GBM xenograft tumor volume; also recorded: active | MIC ([11]; 24 h, isolate 07-1333, 24 hours): 8 µg/mL (≈ 23.3 µM) | MIC ([11]; 24 h, isolate 07-1502, 24 hours): 32 µg/mL (≈ 93.2 µM) | MIC ([11]; 24 h, isolate 07-1601, 24 hours): 2 µg/mL (≈ 5.82 µM) | MIC ([11]; 48 h, isolate 07-1333, 48 hours): 16 µg/mL (≈ 46.6 µM) | MIC ([11]; 48 h, isolate 07-1502, 48 hours): 64 µg/mL (≈ 186 µM) | MIC ([11]; 48 h, isolate 07-1601, 48 hours): 4 µg/mL (≈ 11.6 µM) | MIC ([12]; 24 h, isolate 07-1399, 24 hours): 64 µg/mL (≈ 186 µM) | MIC ([12]; 24 h, isolate 07-1755, 24 hours): > 64 µg/mL | MIC ([12]; 24 h, isolate 07-1867, 24 hours): 32 µg/mL (≈ 93.2 µM) | MIC ([12]; 48 h, isolate 07-1399, 48 hours): > 64 µg/mL | MIC ([12]; 48 h, isolate 07-1755, 48 hours): > 64 µg/mL | MIC ([12]; 48 h, isolate 07-1867, 48 hours): 64 µg/mL (≈ 186 µM)
